# Target: T1, Tma Rex (Thermotoga maritima, UniProt Q9WY16)
# T1 construct: gene rex1; Full-length, residues 1-208 (5-207 modelled); homodimer; P-loop residues 89-94 GAGNIG; crystallised with 22-bp TM0201 operator DNA
# T1 sequence (Q9WY16 1-208): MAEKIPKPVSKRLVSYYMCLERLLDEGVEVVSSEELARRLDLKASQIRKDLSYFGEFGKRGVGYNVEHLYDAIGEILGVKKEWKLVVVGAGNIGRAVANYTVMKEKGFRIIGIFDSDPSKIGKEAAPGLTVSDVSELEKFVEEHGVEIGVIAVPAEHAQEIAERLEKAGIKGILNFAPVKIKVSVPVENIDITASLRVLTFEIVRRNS
# Assay: X-ray crystallography, co-crystal structure at […] A
# Assay type: binding
# Details: ternary complex with 22-bp TM0201 operator DNA; 1 mM NAD+ in co-crystallization; pH 6.5, 296 K; one NAD+ per monomer, C-terminal Rossmann domain near dimer interface
smiles,measurement,value
NC(=O)c1ccc[n+]([C@@H]2O[C@H](COP(=O)(O)OP(=O)(O)OC[C@H]3O[C@@H](n4cnc5c(N)ncnc54)[C@H](O)[C@@H]3O)[C@@H](O)[C@H]2O)c1 [NAD^+],"X-ray crystallography, co-crystal structure at 2.40 A",a dimeric Rex protein bound to one molecule of NAD^+ per monomer

# Reference: publication PMC8836258, “Structural Basis of Redox-Sensing Transcriptional Repressor Rex with Cofactor NAD^+ and Operator DNA” (International Journal of Molecular Sciences, 2022)
